Source: patent US10770169B2, “Method of providing a treatment to a subject based on a dynamic pathway map” (THE REGENTS OF THE UNIVERSITY OF CALIFORNIA, priority 2010, dated 2020)

System: panel of 55 breast cancer cell lines
Experiment: Cell growth inhibition assay (Cell Titer Glo, 72 h, 9 doses; GI50, TGI, LC50)
Format: cell-based, human
Details: value is the negative log10 of mol/L

`CNC(=O)c1c(F)cccc1Nc1nc(Nc2cc3c(cc2OC)CCN3C(=O)CN(C)C)nc2[nH]ccc12` [GSK1838705A] was tested, and the GI50 (600MPE cell line, censored GI50 values) was 6.49, the GI50 (AU565 cell line, censored GI50 values) was 5.63 and the GI50 (BT20 cell line, censored GI50 values) was 4.63. For the same molecule, the GI50 (BT474 cell line, censored GI50 values) was 5.08, the GI50 (BT483 cell line, censored GI50 values) was 5.52 and the GI50 (BT549 cell line, censored GI50 values) was 5.21. For the same molecule, the GI50 (CAMA1 cell line, censored GI50 values) was 5.05, the GI50 (HCC38 cell line, censored GI50 values) was 5.00 and the GI50 (HCC70 cell line, censored GI50 values) was 5.18. The GI50 (HCC202 cell line, censored GI50 values) was 5.11, the GI50 (HCC1143 cell line, censored GI50 values) was 5.55 and the GI50 (HCC1187 cell line, censored GI50 values) was 5.61. For the same molecule, the GI50 (HCC1395 cell line, censored GI50 values) was 5.28, the GI50 (HCC1419 cell line, censored GI50 values) was 5.21 and the GI50 (HCC1428 cell line, censored GI50 values) was 5.79. The GI50 (HCC1500 cell line, censored GI50 values) was 5.02, the GI50 (HCC1806 cell line, censored GI50 values) was 4.27 and the GI50 (HCC1937 cell line, censored GI50 values) was 4.71. It also gave a GI50 (HCC1954 cell line, censored GI50 values) of 5.08, a GI50 (HCC2185 cell line, censored GI50 values) of 5.54 and a GI50 (HCC3153 cell line, censored GI50 values) of 5.26. For the same molecule, the GI50 (LY2 cell line, censored GI50 values) was 6.26, the GI50 (MCF7 cell line, censored GI50 values) was 5.89 and the GI50 (MDAMB134VI cell line, censored GI50 values) was 5.06. The GI50 (MDAMB157 cell line, censored GI50 values) was 5.05, the GI50 (MDAMB175VII cell line, censored GI50 values) was 5.30 and the GI50 (MDAMB231 cell line, censored GI50 values) was 5.28. It also gave a GI50 (MDAMB361 cell line, censored GI50 values) of 5.04, a GI50 (MDAMB415 cell line, censored GI50 values) of 5.37 and a GI50 (MDAMB436 cell line, censored GI50 values) of 5.00. For the same molecule, the GI50 (MDAMB453 cell line, censored GI50 values) was 5.07, the GI50 (MDAMB468 cell line, censored GI50 values) was 5.29 and the GI50 (SKBR3 cell line, censored GI50 values) was 5.16. It also gave a GI50 (SUM149PT cell line, censored GI50 values) of 5.41, a GI50 (SUM159PT cell line, censored GI50 values) of 5.46 and a GI50 (SUM185PE cell line, censored GI50 values) of 5.48. The GI50 (SUM225CWN cell line, censored GI50 values) was 4.89, the GI50 (SUM1315MO2 cell line, censored GI50 values) was 5.33 and the GI50 (cell line 600MPE) was 6.49. The GI50 (cell line AU565) was 5.63 and the GI50 (cell line BT20) was 4.63.

`COc1ncc(-c2ccc3nccc(-c4ccnnc4)c3c2)cc1NS(=O)(=O)c1ccc(F)cc1F` [GSK2126458A] showed a GI50 (cell line 600MPE, censored GI50 values) of 8.22, a GI50 (cell line 600MPE) of 8.22 and a GI50 (cell line AU565, censored GI50 values) of 8.10. The GI50 (cell line AU565) was 8.10, the GI50 (cell line BT20, censored GI50 values) was 7.80 and the GI50 (cell line BT20) was 7.80. For the same molecule, the GI50 (cell line BT474, censored GI50 values) was 8.36, the GI50 (cell line BT483, censored GI50 values) was 8.94 and the GI50 (cell line BT549, censored GI50 values) was 7.32. The GI50 (cell line CAMA1, censored GI50 values) was 6.97, the GI50 (cell line HCC38, censored GI50 values) was 7.62 and the GI50 (cell line HCC70, censored GI50 values) was 8.13. For the same molecule, the GI50 (cell line HCC202, censored GI50 values) was 9.03, the GI50 (cell line HCC1143, censored GI50 values) was 7.43 and the GI50 (cell line HCC1187, censored GI50 values) was 8.30. For the same molecule, the GI50 (cell line HCC1395, censored GI50 values) was 7.31, the GI50 (cell line HCC1419, censored GI50 values) was 8.75 and the GI50 (cell line HCC1428, censored GI50 values) was 7.48. The GI50 (cell line HCC1500, censored GI50 values) was 7.11, the GI50 (cell line HCC1806, censored GI50 values) was 7.54 and the GI50 (cell line HCC1937, censored GI50 values) was 7.57. For the same molecule, the GI50 (cell line HCC1954, censored GI50 values) was 7.97, the GI50 (cell line HCC3153, censored GI50 values) was 7.36 and the GI50 (cell line LY2, censored GI50 values) was 7.93. For the same molecule, the GI50 (cell line MCF7, censored GI50 values) was 8.14, the GI50 (cell line MDAMB134VI, censored GI50 values) was 7.95 and the GI50 (cell line MDAMB157, censored GI50 values) was 6.49. For the same molecule, the GI50 (cell line MDAMB175VII, censored GI50 values) was 8.29, the GI50 (cell line MDAMB231, censored GI50 values) was 5.57 and the GI50 (cell line MDAMB361, censored GI50 values) was 7.46. For the same molecule, the GI50 (cell line MDAMB436, censored GI50 values) was 6.75, the GI50 (cell line MDAMB453, censored GI50 values) was 8.28 and the GI50 (cell line MDAMB468, censored GI50 values) was 7.47. For the same molecule, the GI50 (cell line SKBR3, censored GI50 values) was 8.41, the GI50 (cell line SUM52PE, censored GI50 values) was 8.46 and the GI50 (cell line SUM149PT, censored GI50 values) was 7.64. It also gave a GI50 (cell line SUM159PT, censored GI50 values) of 7.52, a GI50 (cell line SUM1315MO2, censored GI50 values) of 8.02 and a GI50 (cell line T47D, censored GI50 values) of 8.45. For the same molecule, the GI50 (cell line UACC812, censored GI50 values) was 8.67, the GI50 (cell line UACC893, censored GI50 values) was 8.22 and the GI50 (cell line ZR75B, censored GI50 values) was 8.31. It also gave a GI50 (cell line ZR751, censored GI50 values) of 8.07.
